Patent US20230310440A1, “RESPIRATORY STIMULANT NASAL FORMULATIONS” (Enalare Therapeutics Inc., priority 2022, published 2023)

Experiments:
Type in all cases: physicochemical
[1] = pH solubility study (100 mM citric acid, titrated with NaOH, shaken overnight at room temperature, filtered, HPLC); settings: for Cmp. A.H2SO4 Concentration: no excess solid, not saturation solubility
Method: A pH solubility study was performed to assess the feasibility of formulating a compound having Formula (I) as a simple buffered solution at a reasonable pH for a nasal formulation.
Methodology: A compound having Formula (I) and H2SO4 solution of concentration ˜107 mg/mL in 100 mM citric acid at pH 2.5 was prepared. About 150 μL aliquots of this solution were transferred into 6 separate glass HPLC vials. All the samples, including the solution at pH 2.5, were shaken overnight at room temperature using a gyratory shaker. After shaking, the samples were evaluated visually for the presence of precipitate and were then spin filtered through 0.45 μm syringe tip filters (4 mm diameter) at 3000 rpm for 20 min. The final pH values of the filtrates were measured. The filtrates were then diluted appropriately and analyzed for compound having Formula (I). H2SO4 concentration using the HPLC assay.
Results: The pH values of the samples prior to and after shaking overnight, appearance as well as concentrations of samples are shown in Table 12.

[2] = Drug substance stability (API in closed Type I glass vials at 40° C. and 60° C.)
Method: Methodology: Approximately 100 mg of the API (Lot 009M9B058) were stored at each of 40° C. and 60° C. in closed Type I glass vials. Samples were analyzed for appearance and percent purity at T0 and after 1 week, 2 weeks and 4 weeks of storage.
Visually, there were no signs of degradation (i.e. discoloration etc.).

[3] = Stability as a function of pH, narrow range (pH 2-3.6, ~10 mM citric acid and glycine buffers, 1 mg/mL); settings: Target pH 2.0; 40° C. Storage 4 wk; listed as Cmp. A
Method: Accordingly, the stability of the compound was evaluated in the pH range 2-3.6.
Methodology: Buffer solutions containing ˜10 mM each of citric acid and glycine in the pH range 2-3.6 were prepared by titrating 250 mL of a single stock containing both buffer agents with 1N NaOH/1N HCl and removing 50 mL aliquots at predetermined pH values. Solutions at 1 mg/mL were prepared in the buffers by dissolving ˜25 mg of compound in ˜23 mL of a given buffer, adjusting the pH to the target and making up the volume to 25.0 mL in a volumetric flask.
Each of the buffered solutions was filtered through a […] polyether sulfone syringe filter into a volumetric flask previously rinsed with 70% ethanol and dried in a laminar flow hood. Following filtration, each buffered solution was split into 9 aliquots in 5 mL serum vials previously rinsed with 70% ethanol and dried in a laminar flow hood. Filtration and preparation of aliquots were performed in a laminar flow hood. Of the nine aliquots, three aliquots were stored at each 40° C. and 60° C., two aliquots were stored at 25° C. and one aliquot was submitted for T0 testing. Samples were evaluated for pH, assay and related substances at TO and, following 1 week, 2 weeks and 4 weeks of storage at 40° C. and 60° C. Samples stored at 25° C. served as controls to be analyzed if necessary. […]

Row | Final pH after Shaking and Filtration ([1]; Target pH 2.5, Initial pH 2.51) | Cmp. A.H2SO4 Concentration ([1]; Target pH 2.5, Initial pH 2.51) [mg/mL] | Final pH after Shaking and Filtration ([1]; Target pH 3.0, Initial pH 3.05) | Cmp. A.H2SO4 Concentration ([1]; Target pH 3.0, Initial pH 3.05) [mg/mL] | Final pH after Shaking and Filtration ([1]; Target pH 3.5, Initial pH 3.51) | Cmp. A.H2SO4 Concentration ([1]; Target pH 3.5, Initial pH 3.51) [mg/mL] | Final pH after Shaking and Filtration ([1]; Target pH 4.0, Initial pH 4.00) | Final pH after Shaking and Filtration ([1]; Target pH 4.5, Initial pH 4.55) | Final pH after Shaking and Filtration ([1]; Target pH 5.0, Initial pH 4.93) | Final pH after Shaking and Filtration ([1]; Target pH 5.5, Initial pH 5.63) | Stability of the API on storage (in words) ([2]; 4 weeks, even at 60° C.) | Purity (%) ([2]; 40° C., T = 1 week) | Purity (%) ([2]; 40° C., T = 2 week) | Purity (%) ([2]; 40° C., T = 4 week) | Purity (%) ([2]; 60° C., T = 1 week) | Purity (%) ([2]; 60° C., T = 2 week) | Purity (%) ([2]; 60° C., T = 4 week) | Purity (%) ([2]; T = 0) | Assay [3] | SMILES
1 | 2.42 | 104.1 | 3.00 | 99.8 | 3.51 | 101.6 | 3.79 | 4.37 | 4.52 | 5.02 | quite stable | 99.92 | 99.90 | 100.00 | 99.76 | 100.00 | 100.00 | 100.00 |  | CCCNc1nc(NCCC)nc(N(C)OC)n1 [Cmp. A.H2SO4, N-(4,6-Bis-n-propylamino-[1,3,5]triazin-2-yl)-O,N-dimethyl-hydroxylamine]
2 |  |  |  |  |  |  |  |  |  |  |  |  |  |  |  |  |  |  | 0956 | CCCNc1nc(NCCC)nc(N(C)OC)n1 [Compound A, N-(4,6-Bis-n-propylamino-[1,3,5]triazin-2-yl)-O,N-dimethyl-hydroxylamine]
